36 compounds from patent US20100305120A1, “COMPOUNDS FOR TREATING MUSCULAR DYSTROPHY” (BIOMARIN IGA LIMITED, priority 2008, published 2010) can be followed below.

For one test, the system named is Utrophin A promoter linked to a luciferase reporter gene. The experiment in a line: Luciferase reporter assay (murine H2K cells), H2K/mdx/Utro A reporter cell line. Type of test: cell-based. As to conditions: 48 h; test compound concentration 0.3 μM; mdx mouse H2K Utrophin A reporter cells; read-out: Activity (luciferase level relative to control). Put shortly: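 Immortalized mdx mouse H2K myoblasts stably carrying ~5 kb utrophin A promoter–luciferase construct, kept at 33 °C, 10% CO2. Compound added 24 h after plating, typically at 10 μM final, for 48 h; luciferase measured by cell lysis and luminescence.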
In general terms: In a reporter assay the amount or activity of a reporter protein is the signal.
On to `CS(=O)(=O)c1ccc(Cn2nc(NC(=O)Nc3ccc(Cl)cc3)c3ccccc32)cc1` [Compound 118, 1-(4-chlorophenyl)-3-(1-(4-(methylsulfonyl)benzyl)-1H-indazol-3-yl)urea], for which the activity at 0.3 µM was < 200%.

Still in this test, the particulars now being: 48 h; test compound concentration 3 μM; mdx mouse H2K Utrophin A reporter cells; read-out: Activity (luciferase level relative to control).
As to `O=C(Nc1ccc2c(c1)OCO2)c1nn(CCc2ccc(C(=O)N3CCOCC3)cc2)c2ccccc12` [Compound 92, N-(benzo[d][1,3]dioxol-5-yl)-1-(4-(morpholine-4-carbonyl)phenethyl)-1H-indazole-3-carboxamide], the activity at 3 µM was < 200%.

On to `CS(=O)(=O)c1ccc(Cn2nc(C(=O)Nc3cnc4ccccc4c3)c3ccccc32)cc1` [Compound 103, 1-(4-(methylsulfonyl)benzyl)-N-(quinolin-3-yl)-1H-indazole-3-carboxamide], for which the activity at 3 µM is < 200%.

The test is the same for the next values; noted with them: 48 h; test compound concentration 10 μM; mdx mouse H2K Utrophin A reporter cells; read-out: Activity (luciferase level relative to control).
Take `O=C(Nc1ccc2c(c1)OCO2)c1nn(Cc2ccc(C(=O)N3CCCCC3)cc2)c2ccccc12` [Compound 93, N-(benzo[d][1,3]dioxol-5-yl)-1-(4-(piperidine-1-carbonyl)benzyl)-1H-indazole-3-carboxamide]: the activity at 10 µM is < 200%.

On to `CS(=O)(=O)c1ccc(Cn2nc(C(=O)Nc3ccc(F)cc3)c3ccccc32)cc1` [Compound 94, N-(4-fluorophenyl)-1-(4-(methylsulfonyl)benzyl)-1H-indazole-3-carboxamide], for which the activity at 10 µM was < 200%.

Turning to `CS(=O)(=O)c1ccc(Cn2nc(-c3nc4ccc(Cl)cc4o3)c3ccccc32)cc1` [Compound 95, 6-chloro-2-(1-(4-(methylsulfonyl)benzyl)-1H-indazol-3-yl)benzo[d]oxazole], the activity at 10 µM is < 200%.

As to `CC(C)c1cccc(NC(=O)c2nn(Cc3ccc(S(C)(=O)=O)cc3)c3ccccc23)c1` [Compound 96, N-(3-isopropylphenyl)-1-(4-(methylsulfonyl)benzyl)-1H-indazole-3-carboxamide], the activity at 10 µM is < 200%.

Consider `O=C(Nc1ccc2c(c1)OCO2)c1nn(Cc2ccncc2)c2ccccc12` [Compound 97, N-(benzo[d][1,3]dioxol-5-yl)-1-(pyridin-4-ylmethyl)-1H-indazole-3-carboxamide], for which the activity at 10 µM is < 200%.

In the case of `CC(C)c1nsc(NC(=O)c2nn(Cc3ccc(S(C)(=O)=O)cc3)c3ccccc23)n1` [Compound 98, N-(3-isopropyl-1,2,4-thiadiazol-5-yl)-1-(4-(methylsulfonyl)benzyl)-1H-indazole-3-carboxamide], the activity at 10 µM was < 200%.

Take `CS(=O)(=O)c1ccc(Cn2nc(C(=O)Nc3ccc4ncccc4c3)c3ccccc32)cc1` [Compound 99, 1-(4-(methylsulfonyl)benzyl)-N-(quinolin-6-yl)-1H-indazole-3-carboxamide]: the activity at 10 µM lay within 201 to 300%.

As to `O=C(Nc1ccc2c(c1)OCO2)c1nn(Cc2cccc(C(=O)N3CCOCC3)c2)c2ccccc12` [Compound 100, N-(benzo[d][1,3]dioxol-5-yl)-1-(3-(morpholine-4-carbonyl)benzyl)-1H-indazole-3-carboxamide], the activity at 10 µM was < 200%.

With `CS(=O)(=O)c1ccc(Cn2nc(C(=O)Nc3ccc(S(C)(=O)=O)cc3)c3ccccc32)cc1` [Compound 101, 1-(4-(methylsulfonyl)benzyl)-N-(4-(methylsulfonyl)phenyl)-1H-indazole-3-carboxamide], the activity at 10 µM is < 200%.

For `CS(=O)(=O)c1ccc(Cn2nc(C(=S)Nc3ccc4c(c3)OCO4)c3ccccc32)cc1` [Compound 102, N-(benzo[d][1,3]dioxol-5-yl)-1-(4-(methylsulfonyl)benzyl)-1H-indazole-3-carbothioamide], the activity at 10 µM fell in the range of 201 to 300%.

Turning to `Cc1ccc(NC(=O)c2nn(Cc3ccc(S(C)(=O)=O)cc3)c3ccccc23)cc1C` [Compound 104, N-(3,4-dimethylphenyl)-1-(4-(methylsulfonyl)benzyl)-1H-indazole-3-carboxamide], the activity at 10 µM was 301 to 400%.

For the compound `CS(=O)(=O)c1ccc(Cn2nc(C(=O)Nc3ccc4c(c3)OCCO4)c3ccccc32)cc1` [Compound 105, N-(2,3-dihydrobenzo[b][1,4]dioxin-6-yl)-1-(4-(methylsulfonyl)benzyl)-1H-indazole-3-carboxamide], the activity at 10 µM is > 401%.

Regarding `O=C(Nc1ccc2c(c1)OCO2)c1nn(Cc2cccnc2)c2ccccc12` [Compound 106, N-(benzo[d][1,3]dioxol-5-yl)-1-(pyridin-3-ylmethyl)-1H-indazole-3-carboxamide], the activity at 10 µM is 201 to 300%.

As to `CC(=O)Nc1ccc(NC(=O)c2nn(Cc3ccc(S(C)(=O)=O)cc3)c3ccccc23)cc1` [Compound 107, N-(4-acetamidophenyl)-1-(4-(methylsulfonyl)benzyl)-1H-indazole-3-carboxamide], the activity at 10 µM was in the range of 201 to 300%.

For `Cc1ccc(NC(=O)c2nn(Cc3ccc(S(C)(=O)=O)cc3)c3ccccc23)cc1` [Compound 108, 1-(4-(methylsulfonyl)benzyl)-N-p-tolyl-1H-indazole-3-carboxamide], the activity at 10 µM is > 401%.

With `CC(=O)Nc1ccc(NC(=O)c2nn(Cc3ccc(C(F)(F)F)cc3)c3ccccc23)cc1` [Compound 109, N-(4-acetamidophenyl)-1-(4-(trifluoromethyl)benzyl)-1H-indazole-3-carboxamide], the activity at 10 µM is < 200%.

As for `CS(=O)(=O)c1ccc(Cn2nc(C(=O)Nc3ccc4nccnc4c3)c3ccccc32)cc1` [Compound 110, 1-(4-(methylsulfonyl)benzyl)-N-(quinoxalin-6-yl)-1H-indazole-3-carboxamide], the activity at 10 µM was 301 to 400%.

On to `CS(=O)(=O)c1ccc(Cn2nc(C(=O)Nc3ccc(Cl)c(Cl)c3)c3ccccc32)cc1` [Compound 111, N-(3,4-dichlorophenyl)-1-(4-(methylsulfonyl)benzyl)-1H-indazole-3-carboxamide], for which the activity at 10 µM is < 200%.

`CCCc1ccc(NC(=O)c2nn(Cc3ccc(S(C)(=O)=O)cc3)c3ccccc23)cc1` [Compound 112, 1-(4-(methylsulfonyl)benzyl)-N-(4-propylphenyl)-1H-indazole-3-carboxamide]: the activity at 10 µM was in the range of 201 to 300%.

In the case of `CS(=O)(=O)c1ccc(Cn2nc(C(=O)Nc3ccc4c(c3)CS(=O)(=O)C4)c3ccccc32)cc1` [Compound 113, N-(1,3-dihydrobenzo[c]thiophen-2,2-dioxy-5-yl)-1-(4-(methylsulfonyl)benzyl)-1H-indazole-3-carboxamide], the activity at 10 µM is < 200%.

As for `O=C(Nc1ccc2c(c1)OCO2)c1nn(Cc2ccc(C(F)(F)F)cc2)c2ccccc12` [Compound 115, N-(benzo[d][1,3]dioxol-5-yl)-1-(4-(trifluoromethyl)benzyl)-1H-indazole-3-carboxamide], the activity at 10 µM was < 200%.

In the case of `CS(=O)(=O)c1ccc(Cn2nc(C(=O)Nc3ccc4ccccc4c3)c3ccccc32)cc1` [Compound 116, 1-(4-(methylsulfonyl)benzyl)-N-(naphthalen-2-yl)-1H-indazole-3-carboxamide], the activity at 10 µM was in the range of 201 to 300%.

As for `CN(C)C(=O)c1ccc(Cn2nc(C(=O)Nc3ccc4c(c3)OCO4)c3ccccc32)cc1` [Compound 117, N-(benzo[d][1,3]dioxol-5-yl)-1-(4-(dimethylcarbamoyl)benzyl)-1H-indazole-3-carboxamide], the activity at 10 µM lay within 201 to 300%.

Consider `CC(C)c1ccc(Cn2nc(C(=O)Nc3ccc4c(c3)OCO4)c3ccccc32)cc1` [Compound 119, N-(benzo[d][1,3]dioxol-5-yl)-1-(4-isopropylbenzyl)-1H-indazole-3-carboxamide], for which the activity at 10 µM is < 200%.

Consider `CS(=O)(=O)c1ccc(Cn2nc(C(=O)Nc3ccc4occc4c3)c3ccccc32)cc1` [Compound 120, N-(benzofuran-5-yl)-1-(4-(methylsulfonyl)benzyl)-1H-indazole-3-carboxamide], for which the activity at 10 µM is 301 to 400%.

Regarding `CS(=O)(=O)c1ccc(Cn2nc(C(=O)Nc3ccc4c(c3)CCCC4)c3ccccc32)cc1` [Compound 121, 1-(4-(methylsulfonyl)benzyl)-N-(5,6,7,8-tetrahydronaphthalen-2-yl)-1H-indazole-3-carboxamide], the activity at 10 µM was 201 to 300%.

For the compound `CS(=O)(=O)c1ccc(Cn2nc(C(=O)Nc3ccc(C4CCCCC4)cc3)c3ccccc32)cc1` [Compound 122, N-(4-cyclohexylphenyl)-1-(4-(methylsulfonyl)benzyl)-1H-indazole-3-carboxamide], the activity at 10 µM fell in the range of 201 to 300%.

With `O=C(Nc1ccc2c(c1)OCO2)c1nn(Cc2ccc3c(c2)OCO3)c2ccccc12` [Compound 123, N-(benzo[d][1,3]dioxol-5-yl)-1-(benzo[d][1,3]dioxol-5-ylmethyl)-1H-indazole-3-carboxamide], the activity at 10 µM was in the range of 201 to 300%.

Consider `CC(C)(C)c1ccc(C(=O)n2nc(C(=O)Nc3ccc4c(c3)OCO4)c3ccccc32)cc1` [Compound 124, N-(benzo[d][1,3]dioxol-5-yl)-1-(4-tert-butylbenzoyl)-1H-indazole-3-carboxamide], for which the activity at 10 µM was 301 to 400%.

`Cc1cnc(NC(=O)c2nn(Cc3ccc(S(C)(=O)=O)cc3)c3ccccc23)s1` [Compound 125, 1-(4-(methylsulfonyl)benzyl)-N-(5-methylthiazol-2-yl)-1H-indazole-3-carboxamide]: the activity at 10 µM is < 200%.

As for `Cc1csc(NC(=O)c2nn(Cc3ccc(S(C)(=O)=O)cc3)c3ccccc23)n1` [Compound 126, 1-(4-(methylsulfonyl)benzyl)-N-(4-methylthiazol-2-yl)-1H-indazole-3-carboxamide], the activity at 10 µM is < 200%.

For `CS(=O)(=O)c1cccc(Cn2nc(C(=O)Nc3ccc4c(c3)OCO4)c3ccccc32)c1` [Compound 127, N-(benzo[d][1,3]dioxol-5-yl)-1-(3-(methylsulfonyl)benzyl)-1H-indazole-3-carboxamide], the activity at 10 µM is < 200%.

On to `CN(C)S(=O)(=O)c1ccc(Cn2nc(C(=O)Nc3ccc4c(c3)OCO4)c3ccccc32)cc1` [Compound 128, N-(benzo[d][1,3]dioxol-5-yl)-1-(4-(N,N-dimethylsulfamoyl)benzyl)-1H-indazole-3-carboxamide], for which the activity at 10 µM is 201 to 300%.
